Reference: patent US5834461A, “Tricyclic benzazepine vasopressin antagonists” (American Cyanamid Company, priority 1997, dated 1998)

Key:
[1] = molecular target: T1, rat kidney medullary V2 receptors (Rattus norvegicus, UniProt Q00788); experiment: Binding Assay to Rat Kidney Medullary V2 Receptors; conditions: rat kidney medullary V2
T1 construct: Medullary tissues from rat kidneys are dissected out; from tissue; host or cells: rat kidney medulla membranes
Method in brief: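 Competition binding: [3H]AVP at 0.8 nM, test compounds from 50% DMSO, and membranes from rat kidney medulla, left 120 min on the bench. Filtration then liquid scintillation counting measured bound ligand; 1.0 μM unlabeled ligand set non-specific binding.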

vasopressin V1 = experiment: Vasopressin V1 Antagonist Activity in Conscious Rats (vasopressin vasopressor response); assay type: in vivo, rat (spontaneously hypertensive rats); parameters: Average Change: unit not given here
Method in brief: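 Conscious rats had the ventral caudal tail artery cannulated into the lower abdominal aorta under local procaine anesthesia, plus a caudal vein cannula for intravenous dosing. Pulsatile blood pressure was recorded via a Statham P23Db transducer. Vasopressor responses to vasopressin injections were measured before and after compound dosing, with percent antagonism calculated relative to the pre-drug response taken as 100%.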

[2] = molecular target: vasopressin V1 receptor (rat liver plasma membranes) (Rattus norvegicus, UniProt P30560); experiment: Binding Assay to Rat Hepatic V1 Receptors; conditions: rat hepatic V1
Sequence of vasopressin V1 receptor (rat liver plasma membranes) (P30560 whole entry): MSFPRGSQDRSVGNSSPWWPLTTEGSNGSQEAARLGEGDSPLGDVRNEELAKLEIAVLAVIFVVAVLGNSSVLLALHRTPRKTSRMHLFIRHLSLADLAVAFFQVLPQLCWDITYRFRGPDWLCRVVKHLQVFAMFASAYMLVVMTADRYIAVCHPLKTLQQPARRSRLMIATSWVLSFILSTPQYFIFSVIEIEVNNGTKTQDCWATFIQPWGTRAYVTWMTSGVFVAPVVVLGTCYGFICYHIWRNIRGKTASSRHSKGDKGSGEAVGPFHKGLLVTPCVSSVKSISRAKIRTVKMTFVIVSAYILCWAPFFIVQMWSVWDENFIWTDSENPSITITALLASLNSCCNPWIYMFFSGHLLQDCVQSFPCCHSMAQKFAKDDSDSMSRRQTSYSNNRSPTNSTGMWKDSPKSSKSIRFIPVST

vasopressin V2 = experiment: Vasopressin V2 Antagonist Activity in Conscious Hydrated Rats (diuretic effect); assay type: in vivo, normal Sprague-Dawley rats; conditions: AVP 0.4 μg/kg i.p.
Procedure: Conscious hydrated rats are treated with compounds under study from 0.1 to 100 mg/kg orally or vehicle. Two to four rats are used for each compound. One hour later, arginine vasopressin (AVP, antidiuretic hormore, ADH) dissolved in peanut oil is administered at 0.4 μg/kg intraperitoneally. Two rats in each test would not receive arginine vasopressin but only the vehicle (peanut oil) to serve as water-loading control. Twenty minutes later each rat is given 30 mL/kg of deionized water orally by gavage and is placed individually in a metabolic cage equipped with a funnel and a graduated glass cylinder to collect urine for four hours. Urine volume is measured and osmolality analyzed by use of a Fiske One-Ten osmometer (Fiske Assoc., Norwood, Mass., USA). Urinary sodium, potassium, and chloride are analyzed by use of ion-specific electrodes in a Beckman E3 (Electrolyte 3) Analyzer. In the following results, […] and decreased osmolality relative to AVP-control indicates activity.

[3] = 10 mg/kg i.v., VAS 0.01 i.u./kg, 30 min
[4] = 10 mg/kg i.v., VAS 0.01 i.u./kg, 60 min
[5] = 10 mg/kg i.v., VAS 0.01 i.u./kg, 90 min
[6] = 10 mg/kg i.v., VAS 0.01 i.u./kg, 120 min
[7] = 10 mg/kg i.v., VAS 0.01 i.u./kg, 180 min
[8] = 10 mg/kg i.v., VAS 0.01 i.u./kg, 240 min
[9] = 10 mg/kg i.v., VAS 0.01 i.u./kg, 300 min
[10] = 10 mg/kg i.v., VAS 0.02 i.u./kg, 30 min
[11] = 10 mg/kg i.v., VAS 0.02 i.u./kg, 60 min
[12] = 10 mg/kg i.v., VAS 0.02 i.u./kg, 90 min
[13] = 10 mg/kg i.v., VAS 0.02 i.u./kg, 120 min
[14] = 10 mg/kg i.v., VAS 0.02 i.u./kg, 180 min
[15] = 10 mg/kg i.v., VAS 0.02 i.u./kg, 240 min
[16] = 10 mg/kg i.v., VAS 0.02 i.u./kg, 300 min
[17] = 20 mg/kg i.v., VAS 0.01 i.u./kg, 60 min
[18] = 20 mg/kg i.v., VAS 0.01 i.u./kg, 90 min
[19] = 20 mg/kg i.v., VAS 0.01 i.u./kg, 120 min
[20] = 20 mg/kg i.v., VAS 0.01 i.u./kg, 180 min
[21] = 20 mg/kg i.v., VAS 0.01 i.u./kg, 240 min
[22] = 20 mg/kg i.v., VAS 0.01 i.u./kg, 300 min
[23] = 20 mg/kg i.v., VAS 0.02 i.u./kg, 60 min
[24] = 20 mg/kg i.v., VAS 0.02 i.u./kg, 90 min
[25] = 20 mg/kg i.v., VAS 0.02 i.u./kg, 120 min
[26] = 20 mg/kg i.v., VAS 0.02 i.u./kg, 180 min
[27] = 20 mg/kg i.v., VAS 0.02 i.u./kg, 240 min
[28] = 20 mg/kg i.v., VAS 0.02 i.u./kg, 300 min

T1 sequence (Q00788 whole entry): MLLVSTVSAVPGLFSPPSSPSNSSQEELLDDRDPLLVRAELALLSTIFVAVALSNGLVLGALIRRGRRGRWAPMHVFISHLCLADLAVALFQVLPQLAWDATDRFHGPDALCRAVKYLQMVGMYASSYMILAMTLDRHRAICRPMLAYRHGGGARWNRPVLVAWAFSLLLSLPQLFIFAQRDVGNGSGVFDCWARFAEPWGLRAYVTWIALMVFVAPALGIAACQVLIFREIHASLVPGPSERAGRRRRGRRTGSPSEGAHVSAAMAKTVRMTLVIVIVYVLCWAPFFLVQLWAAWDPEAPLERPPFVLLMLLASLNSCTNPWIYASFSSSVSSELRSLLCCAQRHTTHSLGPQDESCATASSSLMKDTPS

## Cc1ccccc1C(=O)Nc1ccc(C(=O)N2Cc3ccccc3C(C)c3ccccc32)cc1 (centres unmarked) [Example 22]
[1]
  IC50: 140 nM
Vasopressin V1; [3]
  Average Change: 8.5
  Inhibition: 60%
Vasopressin V1; [4]
  Average Change: 11
  Inhibition: 49%
Vasopressin V1; [5]
  Average Change: 14
  Inhibition: 35%
Vasopressin V1; [6]
  Average Change: 17.5
  Inhibition: 19%
Vasopressin V1; [7]
  Average Change: 20
  Inhibition: 7%
Vasopressin V1; [8]
  Average Change: 28
  Inhibition: -30%
Vasopressin V1; [9]
  Average Change: 30
  Inhibition: -40%
Vasopressin V1; [10]
  Average Change: 18.5
  Inhibition: 56%
Vasopressin V1; [11]
  Average Change: 25
  Inhibition: 40%
Vasopressin V1; [12]
  Average Change: 13
  Inhibition: 69%
Vasopressin V1; [13]
  Average Change: 30
  Inhibition: 29%
Vasopressin V1; [14]
  Average Change: 36
  Inhibition: 14%
Vasopressin V1; [15]
  Average Change: 48
  Inhibition: -14%
Vasopressin V1; [16]
  Average Change: 52.5
  Inhibition: -25%
[2]
  IC50: 320 nM
Vasopressin V2; 30 mg/kg orally
  Osmolality: 738 mOsm/kg
  Urine Volume: 10.2 ml/4 hrs.

## O=C(Nc1ccc(C(=O)N2Cc3ccccc3Cc3ccccc32)cc1)c1ccccc1Cl [Example 14, N-[4-[(6,11-Dihydro-5H-dibenz[b,e]azepin-5-yl)-carbonyl]phenyl]-2-chlorobenzamide]
[1]
  IC50: 66 nM
Vasopressin V1; [3]
  Average Change: 11
  Inhibition: 51%
Vasopressin V1; [4]
  Average Change: 12
  Inhibition: 47%
Vasopressin V1; [5]
  Average Change: 13.5
  Inhibition: 40%
Vasopressin V1; [6]
  Average Change: 16
  Inhibition: 29%
Vasopressin V1; [7]
  Average Change: 21.5
  Inhibition: 4%
Vasopressin V1; [8]
  Average Change: 26.5
  Inhibition: -18%
Vasopressin V1; [9]
  Average Change: 24.5
  Inhibition: -9%
Vasopressin V1; [10]
  Average Change: 23
  Inhibition: 56%
Vasopressin V1; [11]
  Average Change: 22
  Inhibition: 58%
Vasopressin V1; [12]
  Average Change: 29.5
  Inhibition: 43%
Vasopressin V1; [13]
  Average Change: 23.5
  Inhibition: 55%
Vasopressin V1; [14]
  Average Change: 30.5
  Inhibition: 41%
Vasopressin V1; [15]
  Average Change: 32
  Inhibition: 38%
Vasopressin V1; [16]
  Average Change: 33
  Inhibition: 37%
[2]
  IC50: 57 nM
Vasopressin V2; 30 mg/kg orally
  Osmolality: 739 mOsm/kg
  Urine Volume: 13.1 ml/4 hrs.

## Cc1ccccc1C(=O)Nc1ccc(C(=O)N2CCc3ccccc3-c3ccccc32)cc1 [Example 92, N-[4-[(6,7-Dihydro-5H-dibenz[b,d]azepin-5-yl)-carbonyl]phenyl]-2-methylbenzamide]
[1]
  IC50: 25 nM
Vasopressin V1; [3]
  Average Change: 10.5
  Inhibition: 65%
Vasopressin V1; [4]
  Average Change: 18
  Inhibition: 40%
Vasopressin V1; [5]
  Average Change: 17.5
  Inhibition: 42%
Vasopressin V1; [6]
  Average Change: 19
  Inhibition: 37%
Vasopressin V1; [7]
  Average Change: 18
  Inhibition: 40%
Vasopressin V1; [8]
  Average Change: 19
  Inhibition: 37%
Vasopressin V1; [9]
  Average Change: 17.5
  Inhibition: 42%
Vasopressin V1; [10]
  Average Change: 18.5
  Inhibition: 60%
Vasopressin V1; [11]
  Average Change: 22
  Inhibition: 53%
Vasopressin V1; [12]
  Average Change: 27
  Inhibition: 42%
Vasopressin V1; [13]
  Average Change: 20.5
  Inhibition: 56%
Vasopressin V1; [14]
  Average Change: 29.5
  Inhibition: 37%
Vasopressin V1; [15]
  Average Change: 18
  Inhibition: 61%
Vasopressin V1; [16]
  Average Change: 24
  Inhibition: 48%
[2]
  IC50: 98 nM
Vasopressin V2; 10 mg/kg orally
  Osmolality: 679 mOsm/kg
  Urine Volume: 13.5 ml/4 hrs.

## O=C(Nc1ccc(C(=O)N2Cc3ccccc3Cc3cc(Cl)ccc32)cc1)c1ccc(Cl)cc1Cl [Example 137, N-[4-[(2-Chloro-6,11-dihydro-5H-dibenz[b,e]azepin-5-yl)carbonyl]phenyl]2,4-dichlorobenzamide]
[1]
  IC50: 64 nM
Vasopressin V1; 10 mg/kg i.v.
  MAX % Inhibition: 52%
  Time of max % inhibition: 30 min
[2]
  IC50: 76 nM
Vasopressin V2; 30 mg/kg orally
  Osmolality: 358 mOsm/kg
  Urine Volume: 15.8 ml/4 hrs.

## O=C(Nc1ccc(C(=O)N2Cc3ccccc3Cc3ccccc32)cc1)c1ccc(Cl)cc1Cl [Example 10, N-[4-[(6,11-Dihydro-5H-dibenz[b,e]azepin-5-yl)carbonyl]phenyl]2,4-dichlorobenzamide]
[1]
  IC50: 64 nM
Vasopressin V1; [3]
  Average Change: 37.5
  Inhibition: -25%
Vasopressin V1; [10]
  Average Change: 64.5
  Inhibition: -26%
Vasopressin V1; [17]
  Average Change: 14.5
  Inhibition: 52%
Vasopressin V1; [18]
  Average Change: 16
  Inhibition: 47%
Vasopressin V1; [19]
  Average Change: 13.5
  Inhibition: 55%
Vasopressin V1; [20]
  Average Change: 25.5
  Inhibition: 15%
Vasopressin V1; [21]
  Average Change: 22.5
  Inhibition: 25%
Vasopressin V1; [22]
  Average Change: 24.5
  Inhibition: 18%
Vasopressin V1; [23]
  Average Change: 22.5
  Inhibition: 56%
Vasopressin V1; [24]
  Average Change: 23
  Inhibition: 55%
Vasopressin V1; [25]
  Average Change: 22
  Inhibition: 57%
Vasopressin V1; [26]
  Average Change: 29.5
  Inhibition: 42%
Vasopressin V1; [27]
  Average Change: 34.5
  Inhibition: 32%
Vasopressin V1; [28]
  Average Change: 34
  Inhibition: 33%
[2]
  IC50: 170 nM
Vasopressin V2; 10 mg/kg orally
  Osmolality: 1023 mOsm/kg
  Urine Volume: 7.1 ml/4 hrs.

## O=C(Nc1ccc(C(=O)N2Cc3ccccc3Cc3ccccc32)cc1)c1c(Cl)cccc1Cl [Example 252, N-[4-[(6,11-Dihydro-5H-dibenz[b,e]azepin-5-yl)-carbonyl]phenyl]-2,6-dichlorobenzamide]
[1]
  IC50: 260 nM
Vasopressin V1; 30 mg/kg i.v.
  MAX % Inhibition: 75%
  Time of max % inhibition: 120 min
[2]
  IC50: 260 nM
Vasopressin V2; 10 mg/kg orally
  Osmolality: 790 mOsm/kg
  Urine Volume: 7.5 ml/4 hrs.
